Patent US20230293518A1 (Edgewise Therapeutics, Inc., priority 2020, published 2023)
pIC50: −log10 of the molar value.

Molecular target: skeletal myofibrils (myosin ATPase)
Assay: Skeletal Myofibril ATPase Assay
Format: biochemical
Details: Table 4C
Outline: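 Skeletal myofibril ATPase activity was measured via PK-LDH coupling, following NADH loss at 340 nm every 1.5-2 min for 45 min in PIPES/CaCl2/EGTA pCa buffer, pH 7.0. Max−Min slopes were normalised to 1% DMSO vehicle (100%) and fit to a four-parameter logistic (bottom ≥0) for IC50.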

Row | Structure (SMILES) | pIC50
1 | COCCNC(=O)Cn1nc(-c2ccc(OC)cc2)ccc1=O [IIIb-47, N-(2-methoxyethyl)-2-(3-(4-methoxyphenyl)-6-oxopyridazin-1(6H)-yl)acetamide] | < 4.00
2 | COc1ccc(-c2ccc(=O)n(CC(=O)NCCC(C)C)n2)cc1 [IIIb-48, N-isopentyl-2-(3-(4-methoxyphenyl)-6-oxopyridazin-1(6H)-yl)acetamide] | < 4.00
3 | COc1ccc(-c2ccc(=O)n(CC(=O)NCc3ccc(OC)c(OC)c3)n2)cc1 [IIIb-49, N-(3,4-dimethoxybenzyl)-2-(3-(4-methoxyphenyl)-6-oxopyridazin-1(6H)-yl)acetamide] | < 4.00
4 | COc1ccc(-c2ccc(=O)n(CC(=O)NCc3ccc(F)cc3)n2)cc1 [IIIb-50, N-(4-fluorobenzyl)-2-(3-(4-methoxyphenyl)-6-oxopyridazin-1(6H)-yl)acetamide] | < 4.00
5 | COc1ccc(-c2ccc(=O)n(CC(=O)NCCc3ccc(OC)c(OC)c3)n2)cc1 [IIIb-51, N-(3,4-dimethoxyphenethyl)-2-(3-(4-methoxyphenyl)-6-oxopyridazin-1(6H)-yl)acetamide] | < 4.00
6 | COc1ccc(-c2ccc(=O)n(CC(=O)NCc3ccco3)n2)cc1 [IIIb-53, N-(furan-2-ylmethyl)-2-(3-(4-methoxyphenyl)-6-oxopyridazin-1(6H)-yl)acetamide] | < 4.00
7 | COc1ccc(-c2ccc(=O)n(CC(=O)NCc3ccccc3)n2)c(F)c1 [IIIb-54, N-benzyl-2-(3-(2-fluoro-4-methoxyphenyl)-6-oxopyridazin-1(6H)-yl)acetamide] | < 4.00
8 | COc1ccc(-c2ccc(=O)n(CC(=O)NCc3cccc(F)c3)n2)c(F)c1 [IIIb-55, 2-(3-(2-fluoro-4-methoxyphenyl)-6-oxopyridazin-1(6H)-yl)-N-(3-fluorobenzyl)acetamide] | < 4.00
9 | COc1ccc(-c2ccc(=O)n(CC(=O)Nc3ccc(C(C)C)cc3)n2)cc1 [IIIb-56, N-(4-isopropylphenyl)-2-(3-(4-methoxyphenyl)-6-oxopyridazin-1(6H)-yl)acetamide] | < 4.00
10 | COc1ccc(-c2ccc(=O)n(CC(=O)NCCC(C)C)n2)c(F)c1 [IIIb-57, 2-(3-(2-fluoro-4-methoxyphenyl)-6-oxopyridazin-1(6H)-yl)-N-isopentylacetamide] | < 4.00
11 | COc1ccc(-c2ccc(=O)n(CC(=O)NC3CC3)n2)c(F)c1 [IIIb-58, N-cyclopropyl-2-(3-(2-fluoro-4-methoxyphenyl)-6-oxopyridazin-1(6H)-yl)acetamide] | < 4.00
12 | COc1ccc(-c2ccc(=O)n(CC(=O)Nc3cccc(C)n3)n2)cc1 [IIIb-59, 2-(3-(4-methoxyphenyl)-6-oxopyridazin-1(6H)-yl)-N-(6-methylpyridin-2-yl)acetamide] | < 4.00
13 | COc1ccc(-c2ccc(=O)n(CC(=O)NC3CCCCC3)n2)c(F)c1 [IIIb-60, N-cyclohexyl-2-(3-(2-fluoro-4-methoxyphenyl)-6-oxopyridazin-1(6H)-yl)acetamide] | < 4.00
14 | CC[C@H](C)NC(=O)Cn1nc(-c2ccc(C)cc2)ccc1=O [IIIc-2, (S)-N-(sec-butyl)-2-(6-oxo-3-(p-tolyl)pyridazin-1(6H)-yl)acetamide] | > 5.00
15 | Cc1ccc(-c2ccc(=O)n(CC(=O)NC3CCCCCC3)n2)cc1 [IIIc-4, N-cycloheptyl-2-(6-oxo-3-(p-tolyl)pyridazin-1(6H)-yl)acetamide] | 4.00 to 5.00
16 | Cc1ccc(-c2ccc(=O)n(CC(=O)NC3CCCC3)n2)cc1 [IIIc-5, N-cyclopentyl-2-(6-oxo-3-(p-tolyl)pyridazin-1(6H)-yl)acetamide] | 4.00 to 5.00
17 | Cc1ccc(-c2ccc(=O)n(CC(=O)NC3CCCCC3)n2)cc1 [IIIc-6, N-cyclohexyl-2-(6-oxo-3-(p-tolyl)pyridazin-1(6H)-yl)acetamide] | 4.00 to 5.00
18 | COc1ccc(-c2ccc(=O)n(CC(=O)N(C)c3ccccc3)n2)cc1 [IIIc-7, 2-(3-(4-methoxyphenyl)-6-oxopyridazin-1(6H)-yl)-N-methyl-N-phenylacetamide] | 4.00 to 5.00
19 | CC(C)OCCCNC(=O)Cn1nc(-c2ccc(Cl)cc2)ccc1=O [IIIc-33, 2-(3-(4-chlorophenyl)-6-oxopyridazin-1(6H)-yl)-N-(3-isopropoxypropyl)acetamide] | 4.00 to 5.00
20 | CC(C)NC(=O)Cn1nc(-c2ccc(Br)cc2)ccc1=O [IIIc-40, 2-(3-(4-bromophenyl)-6-oxopyridazin-1(6H)-yl)-N-isopropylacetamide] | 4.00 to 5.00
21 | O=C(Cn1nc(-c2ccc(F)cc2)ccc1=O)NCCc1c[nH]c2ccccc12 [IIIc-44, N-(2-(1H-indol-3-yl)ethyl)-2-(3-(4-fluorophenyl)-6-oxopyridazin-1(6H)-yl)acetamide] | 4.00 to 5.00
22 | O=C(Cn1nc(-c2ccccc2)ccc1=O)NCc1ccccc1Cl [IIIc-47, N-(2-chlorobenzyl)-2-(6-oxo-3-phenylpyridazin-1(6H)-yl)acetamide] | 4.00 to 5.00
23 | O=C(Cn1nc(-c2ccccc2)ccc1=O)NCCC1=CCCCC1 [IIIc-48, N-(2-(cyclohex-1-en-1-yl)ethyl)-2-(6-oxo-3-phenylpyridazin-1(6H)-yl)acetamide] | > 5.00
24 | O=C(Cn1nc(-c2ccccc2)ccc1=O)Nc1ccc2[nH]ccc2c1 [IIIc-49, N-(1H-indol-5-yl)-2-(6-oxo-3-phenylpyridazin-1(6H)-yl)acetamide] | > 5.00
25 | O=C(Cn1nc(-c2ccccc2)ccc1=O)NC1(c2ccccc2)CCC1 [IIIc-51, 2-(6-oxo-3-phenylpyridazin-1(6H)-yl)-N-(1-phenylcyclobutyl)acetamide] | > 5.00
26 | CC(CCNC(=O)Cn1nc(-c2ccccc2)ccc1=O)c1ccccc1 (stereo not shown) [IIIc-53, 2-(6-oxo-3-phenylpyridazin-1(6H)-yl)-N-(3-phenylbutyl)acetamide] | 4.00 to 5.00
27 | CCC1CCC(CNC(=O)Cn2nc(-c3ccccc3)ccc2=O)CC1 (stereo not shown) [IIIc-55, N-((4-ethylcyclohexyl)methyl)-2-(6-oxo-3-phenylpyridazin-1(6H)-yl)acetamide] | 4.00 to 5.00
28 | CC[C@H](C)NC(=O)Cn1nc(-c2ccccc2)ccc1=O [IIIc-57, (S)-N-(sec-butyl)-2-(6-oxo-3-phenylpyridazin-1(6H)-yl)acetamide] | 4.00 to 5.00

More lines, now with the values ahead:

Row | pIC50 | Structure (SMILES)
29 | < 4.00 | COc1ccc(-c2ccc(=O)n(CC(=O)Nc3cccc(Cl)c3)n2)cc1 [IIIb-52, N-(3-chlorophenyl)-2-(3-(4-methoxyphenyl)-6-oxopyridazin-1(6H)-yl)acetamide]
30 | > 5.00 | CCc1cccc(NC(=O)Cn2nc(-c3ccc(C)cc3)ccc2=O)c1 [IIIc-1, N-(3-ethylphenyl)-2-(6-oxo-3-(p-tolyl)pyridazin-1(6H)-yl)acetamide]
31 | > 5.00 | Cc1ccc(-c2ccc(=O)n(CC(=O)NCCc3ccccc3)n2)cc1 [IIIc-3, 2-(6-oxo-3-(p-tolyl)pyridazin-1(6H)-yl)-N-phenethylacetamide]
32 | > 5.00 | Cn1ccc2c(NC(=O)Cn3nc(-c4ccc(F)cc4)ccc3=O)cccc21 [IIIc-16, 2-(3-(4-fluorophenyl)-6-oxopyridazin-1(6H)-yl)-N-(1-methyl-1H-indol-4-yl)acetamide]
33 | > 5.00 | O=C(Cn1nc(-c2ccc(Cl)cc2)ccc1=O)Nc1cccc2[nH]ccc12 [IIIc-19, 2-(3-(4-chlorophenyl)-6-oxopyridazin-1(6H)-yl)-N-(1H-indol-4-yl)acetamide]
34 | > 5.00 | Cn1ccc2c(NC(=O)Cn3nc(-c4ccc(Cl)cc4)ccc3=O)cccc21 [IIIc-20, 2-(3-(4-chlorophenyl)-6-oxopyridazin-1(6H)-yl)-N-(1-methyl-1H-indol-4-yl)acetamide]
35 | > 5.00 | O=C(Cn1nc(-c2ccc(Cl)cc2)ccc1=O)Nc1ccc2[nH]ccc2c1 [IIIc-22, 2-(3-(4-chlorophenyl)-6-oxopyridazin-1(6H)-yl)-N-(1H-indol-5-yl)acetamide]
36 | > 5.00 | COc1ccccc1NC(=O)Cn1nc(-c2ccc(Cl)cc2)ccc1=O [IIIc-23, 2-(3-(4-chlorophenyl)-6-oxopyridazin-1(6H)-yl)-N-(2-methoxyphenyl)acetamide]
37 | 4.00 to 5.00 | O=C(Cn1nc(-c2ccc(Cl)cc2)ccc1=O)Nc1ccccc1F [IIIc-27, 2-(3-(4-chlorophenyl)-6-oxopyridazin-1(6H)-yl)-N-(2-fluorophenyl)acetamide]
38 | > 5.00 | O=C(Cn1nc(-c2ccc(Cl)cc2)ccc1=O)Nc1ccccc1Cl [IIIc-28, N-(2-chlorophenyl)-2-(3-(4-chlorophenyl)-6-oxopyridazin-1(6H)-yl)acetamide]
39 | 4.00 to 5.00 | CC[C@H](C)NC(=O)Cn1nc(-c2ccc(Cl)cc2)ccc1=O [IIIc-30, (S)-N-(sec-butyl)-2-(3-(4-chlorophenyl)-6-oxopyridazin-1(6H)-yl)acetamide]
40 | 4.00 to 5.00 | COc1ccc(NC(=O)Cn2nc(-c3ccc(F)cc3)ccc2=O)c(OC)c1 [IIIc-31, N-(2,4-dimethoxyphenyl)-2-(3-(4-fluorophenyl)-6-oxopyridazin-1(6H)-yl)acetamide]
41 | 4.00 to 5.00 | CN(Cc1ccccc1)C(=O)Cn1nc(-c2ccc(Cl)cc2)ccc1=O [IIIc-32, N-benzyl-2-(3-(4-chlorophenyl)-6-oxopyridazin-1(6H)-yl)-N-methylacetamide]
42 | 4.00 to 5.00 | CC(C)CNC(=O)Cn1nc(-c2ccc(Cl)cc2)ccc1=O [IIIc-35, 2-(3-(4-chlorophenyl)-6-oxopyridazin-1(6H)-yl)-N-isobutylacetamide]
43 | 4.00 to 5.00 | O=C(Cn1nc(-c2ccccc2)ccc1=O)Nc1cccc2[nH]ccc12 [IIIc-50, N-(1H-indol-4-yl)-2-(6-oxo-3-phenylpyridazin-1(6H)-yl)acetamide]
44 | 4.00 to 5.00 | O=C(Cn1nc(-c2ccccc2)ccc1=O)Nc1ccccc1C(F)(F)F [IIIc-52, 2-(6-oxo-3-phenylpyridazin-1(6H)-yl)-N-(2-(trifluoromethyl)phenyl)acetamide]
45 | 4.00 to 5.00 | O=C(Cn1nc(-c2ccccc2)ccc1=O)Nc1ccc(Cl)cc1Cl [IIIc-54, N-(2,4-dichlorophenyl)-2-(6-oxo-3-phenylpyridazin-1(6H)-yl)acetamide]
46 | 4.00 to 5.00 | O=C(Cn1nc(-c2ccccc2)ccc1=O)Nc1ccccc1Cl [IIIc-56, N-(2-chlorophenyl)-2-(6-oxo-3-phenylpyridazin-1(6H)-yl)acetamide]
